{"source": "patent US11419869B2", "about": "“Dosage forms and regimens for amino acid compounds” (Pliant Therapeutics, Inc., priority 2019, dated 2022)", "key": {"[1]": {"system": "Type I Collagen gene Col1a1 expression", "assay": "Precision cut lung slices, mice under acute bleomycin exposure (Example B8)", "format": "cell-based", "settings": "3 days culture, normalized to DMSO, FIG. 5A", "method": "Mice (C57BL/6) were administered 3 U/kg of bleomycin (Teva Pharmaceuticals; North Wales, Pa.) on day 0 via oropharyngeal aspiration while under anesthesia. On day 14, precision cut lung slices were obtained. Following euthanization, 2% low gelling temp agarose was injected into the mouse lungs via the trachea. […] The lobes were then subjected to precision slicing to obtain samples for culture using a microtome (Compresstome VF-300-0Z, Precisionary; Greenville, N.C.). Individual slices were distributed in a multiwell culture plate and cultured for 3 days under control (DMSO) and test compound conditions."}, "lung Col1a1 expression": {"system": "lung Col1a1 expression", "assay": "Precision cut lung slices, mice under chronic bleomycin exposure (Example B9)", "format": "cell-based", "settings": "7 days culture, normalized to DMSO, FIG. 5B", "method": "Mice (C57BL/6) were administered 3 U/kg of bleomycin (Teva Pharmaceuticals; North Wales, Pa.) on Day 0 and 1 U/kg of bleomycin on days 14, 28, 42 and 56 via oropharyngeal aspiration while under anesthesia. At day 70, 14 days after the final bleomycin insult, precision cut lung slices were obtained. Following euthanization, 2% low gelling temp agarose was injected into the mouse lungs via the trachea. […] The lobes were then subjected to precision slicing to obtain samples for culture using a microtome (Compresstome VF-300-0Z, Precisionary; Greenville, N.C.). Individual slices were distributed in a multiwell culture plate and cultured for 7 days under control (DMSO) and test compound conditions. The viability of the slices over the course of culturing was confirmed by WST-1 assay of mitochondrial activity.\nDuring the culture period, slices in the control group were treated with DMSO and slices in the test group were treated with a DMSO solution of one of: the selective antibody αvβ6 inhibitor 3G9; the αvβ1-selective small molecule inhibitor; a combination of the selective antibody αvβ6 inhibitor 3G9 and the αvβ1-selective small molecule inhibitor; compound 5; and the small molecule ALK5 inhibitor. The selective αvβ1 and αvβ6 integrin inhibitors were analyzed at ≥their respective IC90 concentrations for inhibition of TGF-beta activation. […]"}, "[2]": {"system": "IPF-derived lung fibroblasts", "assay": "cell adhesion in IPF-derived lung fibroblasts (FIG. 3B)", "format": "cell-based"}, "SMAD3 phosphorylation": {"system": "SMAD3 phosphorylation", "assay": "PSMAD3/SMAD3 in healthy mice treated for 4 days", "format": "in vivo", "settings": "4 days of treatment", "excerpt": "It has been previously shown that inhibition of αvβ6 in the lung can be detected though measurement of phospho-SMAD (pSMAD) in alveolar macrophages. Alveolar macrophages are known to operate in a unique niche in the lung, distinct from interstitial macrophages. SMAD3 is a downstream target of the active TGF-β cytokine binding its receptor and in alveolar macrophages it is phosphorylated by homoeostatic levels of TGF-β. Accordingly, it was desirable to know whether inhibition of TGF-β activation using the disclosed compounds would result in reduced SMAD2 and SMAD3 phosphorylation.\nFIG. 4A is a graph of PSMAD3/SMAD3 in lung tissue from healthy mice administered PBS vehicle and varying levels of compound 5 for 4 days. FIG. 4B is a graph of PSMAD3/SMAD3 in BALF drawn from the same healthy mice administered PBS vehicle and varying levels of compound 5 for 4 days."}, "[3]": {"assay": "SAD and MAD first-in-human pharmacokinetic studies (Example B12)", "format": "in vivo", "method": "Healthy human subjects (N=85) were selected for single ascending dose (SAD) and multiple ascending dose (MAD) first-in-human studies. A solution for oral administration was prepared, containing 10 mg/mL of compound 5 in a 50:50 mixture of ORA-SWEET® SF (PERRIGO®, Allegan, Mich.) and sterile water for irrigation. Sufficient solution was administered orally to the subjects to provide between 15 mg/dose and 75 mg/dose of compound 5 in the SAD study and between 10 mg/dose and 40 mg/dose of compound 5 in the MAD study. Concentrations of compound 5 were measured in the subjects by obtaining a sample of plasma from each subject at desired intervals, and subjecting the plasma to liquid chromatography-mass spectrometry-mass spectrometry (LC-MS/MS), with quantification using a calibration curve determined from a range of solutions at standardized concentrations. The lower limit of quantitation (LLOQ) of the assay was 1 ng/mL and the calibration curve range was 1 to 500 ng/mL."}}, "data": [{"molecule": "COCCN(CCCCc1ccc2c(n1)NCCC2)CC[C@H](Nc1ncnc2ccccc12)C(=O)O", "note": "[Compound 5, (S)-4-((2-methoxyethyl) (4-(5,6,7,8-tetrahydro-1,8-naphthyridin-2-yl)butyl)amino)-2-(quinazolin-4-ylamino) butanoic acid]", "values": [{"measurement": "Type I Collagen gene Col1a1 expression", "setting": "[1]", "value": "decreased Type I Collagen gene Col1a1 expression substantially"}, {"measurement": "lung Col1a1 expression", "setting": "lung Col1a1 expression", "value": "decreased lung Col1a1 expression substantially"}, {"measurement": "cell adhesion in the IPF-derived lung fibroblasts", "setting": "[2]", "value": "substantially inhibited"}, {"measurement": "PSMAD3/SMAD3 in lung tissue", "setting": "SMAD3 phosphorylation; FIG. 4A", "value": "approximately 50 % of the untreated levels"}, {"measurement": "PSMAD3/SMAD3 in BALF", "setting": "SMAD3 phosphorylation; cells isolated from BALF, FIG. 4B", "value": "approximately 50 % of the untreated levels"}, {"measurement": "oral bioavailability and pharmacokinetics", "setting": "[3]; healthy subjects", "value": "good oral bioavailability and pharmacokinetics"}, {"measurement": "half-life", "setting": "[3]; plasma, healthy human subjects, oral solution, SAD 15-75 mg, MAD 10-40 mg, read-out: calculated half life", "value": "18 to 20", "unit": "h"}]}]}
